From article PMC10763615, “Identification and engineering of potent cyclic peptides with selective or promiscuous binding through biochemical profiling and bioinformatic data analysis” (RSC Chemical Biology, 2023) come the findings set out here.

Read-outs that look alike come from different tables or passages of the source. Positions of bridges follow the written chain, without caps; N, C: chain ends. Residues, ends and D or L forms follow the SMILES beside them. Where only a bound is given, the exact number is not on record here.

What all share (assay type): binding
In one test the target is T1, FGF-R4 ECD (Homo sapiens, UniProt P22455).
T1 construct: DNA constructs for the extracellular domain (ECD) of human FGF-; HPC4 (C); made in house; host or cells: HEK 293-6E
T1 sequence (P22455 22-369 limits assumed): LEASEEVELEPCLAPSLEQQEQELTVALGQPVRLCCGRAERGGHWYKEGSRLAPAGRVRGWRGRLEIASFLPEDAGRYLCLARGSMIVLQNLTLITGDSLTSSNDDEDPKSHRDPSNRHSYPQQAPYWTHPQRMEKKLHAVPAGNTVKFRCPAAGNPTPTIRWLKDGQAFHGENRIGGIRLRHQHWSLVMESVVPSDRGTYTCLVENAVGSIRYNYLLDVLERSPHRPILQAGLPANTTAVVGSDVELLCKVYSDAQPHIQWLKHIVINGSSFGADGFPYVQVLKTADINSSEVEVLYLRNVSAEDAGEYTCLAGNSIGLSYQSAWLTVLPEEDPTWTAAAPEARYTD
Put plainly: single concentration BLI of crude peptides. To be noted: read-out: KD (4). On the procedure:
(§1) KD affinity binding measurements were obtained by biolayer interferometry (BLI) instruments (Fortebio Octet HTX, or Sartorius Octet RH16 using either 8 or 16 channel mode.
For single concentration binding experiments, 50 μM peptide stocks in folding buffer were diluted 1:50 in mRNA display selection buffer (PBS pH7.4 supplemented with 0.05% Tween-20 and 0.01% BSA) in either a 96 well black plate, or a 384 well tilted bottom microplate (ForteBio). Biotinylated FGF-R protein was loaded onto Streptavidin-functionalised biosensors (ForteBio) and immersed into ~1 μM peptide to obtain association kinetics curves. Dissociation kinetics curves were obtained by subsequent immersion of ligand-associated loaded sensors into a 1:50 dilution of folding buffer in mRNA display selection buffer. Fitted KD data was adjusted for concentration as determined by UPLC-CAD. […]

The target of the next test is T2, FGF-R3C ECD (Homo sapiens, UniProt P22607).
T2 sequence (P22607 23-375 limits assumed): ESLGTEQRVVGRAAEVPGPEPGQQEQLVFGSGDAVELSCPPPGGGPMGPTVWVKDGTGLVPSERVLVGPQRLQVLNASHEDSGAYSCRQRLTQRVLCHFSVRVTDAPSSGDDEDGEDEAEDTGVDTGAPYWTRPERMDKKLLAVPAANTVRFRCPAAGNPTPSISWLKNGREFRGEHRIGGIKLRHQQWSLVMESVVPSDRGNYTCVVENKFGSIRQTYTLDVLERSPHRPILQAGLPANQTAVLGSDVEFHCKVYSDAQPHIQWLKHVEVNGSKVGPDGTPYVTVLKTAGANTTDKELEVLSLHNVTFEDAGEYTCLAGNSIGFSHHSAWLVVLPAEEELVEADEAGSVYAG
Put plainly: biochemical. Further details: DNA constructs for the extracellular domain (ECD) of human FGF-; HPC4 (C); made in house; host or cells: HEK 293-6E. As to the method:
as §1
(§2) For single concentration binding experiments, 50 μM peptide stocks in folding buffer were diluted 1:50 in mRNA display selection buffer (PBS pH7.4 supplemented with 0.05% Tween-20 and 0.01% BSA) in either a 96 well black plate, or a 384 well tilted bottom microplate (ForteBio). Biotinylated FGF-R protein was loaded onto Streptavidin-functionalised biosensors (ForteBio) and immersed into ~1 μM peptide to obtain association kinetics curves. Dissociation kinetics curves were obtained by subsequent immersion of ligand-associated loaded sensors into a 1:50 dilution of folding buffer in mRNA display selection buffer. Fitted KD data was adjusted for concentration as determined by UPLC-CAD.
(§3) For accurate multi-concentration KD determination, dilution series of each peptide were made, and association and dissociation kinetics curves were obtained as above for each concentration to fit a multi-point KD binding model. Data collection and analysis was performed using the Octet Instrument Control […]
(§4) concentration assay kinetics curves shown in supplementary Figure S 19-24.

The next test has as its target T3, FGF-R1C ECD (Homo sapiens, UniProt P11362).
T3 sequence (P11362 22-376 limits assumed): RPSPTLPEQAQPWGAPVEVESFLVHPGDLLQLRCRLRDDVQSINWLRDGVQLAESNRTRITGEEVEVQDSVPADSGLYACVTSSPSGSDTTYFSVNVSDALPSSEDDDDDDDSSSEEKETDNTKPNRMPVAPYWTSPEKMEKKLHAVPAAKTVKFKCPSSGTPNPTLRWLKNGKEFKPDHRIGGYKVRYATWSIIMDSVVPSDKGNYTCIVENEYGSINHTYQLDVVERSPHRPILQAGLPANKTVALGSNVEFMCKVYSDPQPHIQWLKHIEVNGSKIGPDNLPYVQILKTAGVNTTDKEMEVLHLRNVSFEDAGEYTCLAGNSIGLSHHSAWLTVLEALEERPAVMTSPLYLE
The test can be described thus: biochemical. On the set-up: DNA constructs for the extracellular domain (ECD) of human FGF-; HPC4 (C); made in house; host or cells: HEK 293-6E. As to the method:
as §1, §2, §3, §4

Setting [1] is: crude NNK peptides, single concentration BLI (Table S3).
Setting [2] is: crude T18 selection 1 (1:1:1) peptides, single concentration BLI (Table S4).

`CC[C@H](C)[C@@H]1NC(=O)[C@@H](NC(=O)[C@H](CCSC)NC(C)=O)CSSC[C@@H](C(=O)NCC(=O)N[C@@H](CO)C(=O)NCC(=O)N[C@@H](CO)C(=O)N[C@@H](CC(=O)O)C(=O)N[C@@H](Cc2ccc(O)cc2)C(=O)N[C@@H](CCCCN)C(=O)N[C@@H](CC(=O)O)C(=O)N[C@@H](CC(=O)O)C(=O)N[C@@H](CC(=O)O)C(=O)N[C@@H](CC(=O)O)C(=O)N[C@@H](CCCCN)C(N)=O)NC(=O)[C@H](CO)NC(=O)[C@H](CO)NC(=O)[C@H](CCCNC(=N)N)NC(=O)[C@H](Cc2c[nH]c3ccccc23)NC(=O)[C@H](CC(C)C)NC(=O)[C@H](CC(C)C)NC(=O)[C@H](Cc2ccccc2)NC(=O)[C@H]([C@@H](C)O)NC(=O)[C@H](CCCCN)NC1=O` (Ac-MCIKTFLLWRSSCGSGSDYKDDDDK-NH2; disulfide 2-13): the values for the equilibrium dissociation constant (Kd) at FGF-R4 ECD (setting [1]), at FGF-R3C ECD and on FGF-R1C ECD were > 10000 nM, > 10 µM and > 10 µM, respectively.

With `CC[C@H](C)[C@@H]1NC(=O)[C@H](Cc2c[nH]c3ccccc23)NC(=O)[C@H](Cc2c[nH]c3ccccc23)NC(=O)[C@H](CCCNC(=N)N)NC(=O)[C@H](C)NC(=O)[C@H](Cc2ccc(O)cc2)NC(=O)[C@H](CCC(N)=O)NC(=O)[C@H](C)NC(=O)[C@H](CCCNC(=N)N)NC(=O)[C@H]([C@@H](C)CC)NC(=O)[C@H](CO)NC(=O)[C@H](CC(=O)O)NC(=O)[C@@H](NC(=O)[C@H](CCSC)NC(C)=O)CSSC[C@@H](C(=O)NCC(=O)N[C@@H](CO)C(=O)NCC(=O)N[C@@H](CO)C(=O)N[C@@H](CC(=O)O)C(=O)N[C@@H](Cc2ccc(O)cc2)C(=O)N[C@@H](CCCCN)C(=O)N[C@@H](CC(=O)O)C(=O)N[C@@H](CC(=O)O)C(=O)N[C@@H](CC(=O)O)C(=O)N[C@@H](CC(=O)O)C(=O)N[C@@H](CCCCN)C(N)=O)NC1=O` (Ac-MCDSIRAQYARWWICGSGSDYKDDDDK-NH2; disulfide 2-15), the values for the Kd on FGF-R4 ECD (setting [2]), at FGF-R3C ECD and on FGF-R1C ECD were 183 nM, > 10 µM and > 10 µM, respectively.

Take `CC[C@H](C)[C@@H]1NC(=O)[C@H](CCC(=O)O)NC(=O)[C@H](CCCNC(=N)N)NC(=O)[C@@H](NC(=O)[C@H](CCSC)NC(C)=O)CSSC[C@@H](C(=O)NCC(=O)N[C@@H](CO)C(=O)NCC(=O)N[C@@H](CO)C(=O)N[C@@H](CC(=O)O)C(=O)N[C@@H](Cc2ccc(O)cc2)C(=O)N[C@@H](CCCCN)C(=O)N[C@@H](CC(=O)O)C(=O)N[C@@H](CC(=O)O)C(=O)N[C@@H](CC(=O)O)C(=O)N[C@@H](CC(=O)O)C(=O)N[C@@H](CCCCN)C(N)=O)NC(=O)[C@H](CCC(N)=O)NC(=O)[C@H](Cc2c[nH]c3ccccc23)NC(=O)[C@H](CC(C)C)NC(=O)[C@H](CCC(N)=O)NC(=O)[C@H](Cc2c[nH]c3ccccc23)NC(=O)[C@H](Cc2ccc(O)cc2)NC(=O)[C@H](CCCNC(=N)N)NC1=O` (Ac-MCREIRYWQLWQCGSGSDYKDDDDK-NH2; disulfide 2-13): the dissociation constant (Kd) was 27 nM on FGF-R4 ECD (setting [2]), > 10 µM at FGF-R3C ECD and > 10 µM at FGF-R1C ECD.

Consider `CC[C@H](C)[C@@H]1NC(=O)[C@H](CO)NC(=O)[C@H](Cc2ccccc2)NC(=O)[C@H](Cc2c[nH]cn2)NC(=O)CNC(=O)[C@@H](NC(=O)[C@H](CCSC)NC(C)=O)CSSC[C@@H](C(=O)NCC(=O)N[C@@H](CO)C(=O)NCC(=O)N[C@@H](CO)C(=O)N[C@@H](CC(=O)O)C(=O)N[C@@H](Cc2ccc(O)cc2)C(=O)N[C@@H](CCCCN)C(=O)N[C@@H](CC(=O)O)C(=O)N[C@@H](CC(=O)O)C(=O)N[C@@H](CC(=O)O)C(=O)N[C@@H](CC(=O)O)C(=O)N[C@@H](CCCCN)C(N)=O)NC(=O)[C@H](Cc2c[nH]c3ccccc23)NC(=O)[C@H](CCCCN)NC(=O)[C@H](Cc2ccccc2)NC(=O)[C@H](Cc2c[nH]c3ccccc23)NC(=O)[C@H]([C@@H](C)O)NC1=O` (Ac-MCGHFSITWFKWCGSGSDYKDDDDK-NH2; disulfide 2-13), for which the dissociation constant (Kd) on FGF-R4 ECD (setting [1]) is > 10000 nM; on FGF-R3C ECD it was > 10 µM; at FGF-R1C ECD, > 10 µM.

Consider `CC[C@H](C)[C@@H]1NC(=O)[C@H](Cc2ccccc2)NC(=O)[C@@H]2CCCN2C(=O)[C@H](CC(C)C)NC(=O)[C@H](Cc2ccccc2)NC(=O)[C@H](CC(C)C)NC(=O)[C@H](CC(=O)O)NC(=O)[C@H](Cc2ccccc2)NC(=O)[C@H]([C@@H](C)O)NC(=O)[C@@H](NC(=O)[C@@H](N)CCSC)CSSC[C@@H](C(=O)NCC(=O)N[C@@H](CO)C(=O)NCC(=O)N[C@@H](CO)C(=O)N[C@@H](CC(=O)O)C(=O)N[C@@H](Cc2ccc(O)cc2)C(=O)N[C@@H](CCCCN)C(=O)N[C@@H](CC(=O)O)C(=O)N[C@@H](CC(=O)O)C(=O)N[C@@H](CC(=O)O)C(=O)N[C@@H](CC(=O)O)C(=O)N[C@@H](CCCCN)C(N)=O)NC(=O)[C@H](Cc2ccccc2)NC1=O` (H-MCTFDLFLPFIFCGSGSDYKDDDDK-NH2; disulfide 2-13), for which the Kd at FGF-R4 ECD (setting [1]) is > 10000 nM; on FGF-R3C ECD it was 0.177 µM; on FGF-R1C ECD, > 10 µM.

As for `CC[C@H](C)[C@@H]1NC(=O)[C@H](CO)NC(=O)[C@@H](NC(=O)[C@H](CCSC)NC(C)=O)CSSC[C@@H](C(=O)NCC(=O)N[C@@H](CO)C(=O)NCC(=O)N[C@@H](CO)C(=O)N[C@@H](CC(=O)O)C(=O)N[C@@H](Cc2ccc(O)cc2)C(=O)N[C@@H](CCCCN)C(=O)N[C@@H](CC(=O)O)C(=O)N[C@@H](CC(=O)O)C(=O)N[C@@H](CC(=O)O)C(=O)N[C@@H](CC(=O)O)C(=O)N[C@@H](CCCCN)C(N)=O)NC(=O)[C@H](CC(C)C)NC(=O)[C@@H]2CCCN2C(=O)[C@H](CCCCN)NC(=O)[C@H]([C@@H](C)O)NC(=O)[C@H]([C@@H](C)CC)NC(=O)[C@H](CCCCN)NC(=O)[C@H](Cc2ccc(O)cc2)NC(=O)[C@H](Cc2c[nH]c3ccccc23)NC(=O)[C@H](CC(C)C)NC1=O` (Ac-MCSILWYKITKPLCGSGSDYKDDDDK-NH2; disulfide 2-14), the dissociation constant (Kd) on FGF-R4 ECD (setting [2]) is 13 nM; on FGF-R3C ECD, > 10 µM; at FGF-R1C ECD, > 10 µM.

As to `CC[C@H](C)[C@@H]1NC(=O)[C@H](C)NC(=O)[C@H](Cc2ccc(O)cc2)NC(=O)[C@@H]2CCCN2C(=O)[C@@H](NC(=O)[C@H](CCSC)NC(C)=O)CSSC[C@@H](C(=O)NCC(=O)N[C@@H](CO)C(=O)NCC(=O)N[C@@H](CO)C(=O)N[C@@H](CCC(=O)O)C(=O)N[C@@H](CCC(=O)O)C(=O)NCC(=O)N[C@@H](CO)C(=O)NCC(=O)N[C@@H](CO)C(=O)N[C@@H](CC(=O)O)C(=O)N[C@@H](Cc2ccc(O)cc2)C(=O)N[C@@H](CCCCN)C(=O)N[C@@H](CC(=O)O)C(=O)N[C@@H](CC(=O)O)C(=O)N[C@@H](CC(=O)O)C(=O)N[C@@H](CC(=O)O)C(=O)N[C@@H](CCCCN)C(N)=O)NC(=O)[C@H]([C@@H](C)O)NC(=O)[C@H](CCCCN)NC(=O)[C@H](CCCNC(=N)N)NC(=O)[C@H](Cc2c[nH]c3ccccc23)NC(=O)[C@H](CCCCN)NC(=O)[C@H](Cc2ccc(O)cc2)NC(=O)[C@H](Cc2c[nH]c3ccccc23)NC(=O)[C@H](Cc2ccc(O)cc2)NC1=O` (Ac-MCPYAIYWYKWRKTCGSGSEEGSGSDYKDDDDK-NH2; disulfide 2-15), the Kd was 11 nM on FGF-R4 ECD (setting [2]), > 10 µM at FGF-R3C ECD and > 10 µM at FGF-R1C ECD.

Broadly, the Kd is the concentration at which binding is half-saturated.
